The text below walks through data of patent US7601852B2, “Macrocyclic kinase inhibitors” (Kosan Biosciences Incorporated, priority 2006, dated 2009).

As a reminder, the Ki is a measure of affinity in units of concentration, obtained from inhibition or displacement. Broadly, the kinact is the maximal first-order rate at which the target is inactivated.

For experiment [1], the system named is COLO829 (B-Raf V600E) human melanoma cancer cell line. The experiment is described as follows: Inhibitory concentration against COLO829 cancer cell line. It is filed as cell-based. An excerpt:
(§1) The biological activity of compounds III and IV is compared against that of the natural product hypothemycin in Table A. Inhibitory concentrations against three cancer cell lines is provided. COLO829 B is a human melanoma cancer cell line having a B-Raf V600E mutation. HT29 is a human colon cancer cell line also having a B-Raf V600E mutation. SKOV3 is a human […] cancer cell line having wild-type B-Raf. Additionally, Ki and Kinact for ERK2 are provided.

Experiment [2] has as its system HT29 (B-Raf V600E) human colon cancer cell line. The experiment is described as follows: Inhibitory concentration against HT29 cancer cell line. The experiment is classed as cell-based.
From the text: as §1

Experiment [3] deals with SKOV3 (wild-type B-Raf) human breast cancer cell line. The experiment is described as follows: Inhibitory concentration against SKOV3 cancer cell line. The experiment is classed as cell-based.
From the text: as §1

Experiment [4] deals with panel of 124 kinases. The settings on record: cited from earlier work.
Experiment [5] has as its target ERK2 (Homo sapiens, UniProt P28482). The experiment is described as follows: ERK2 Binding. The settings on record: for kinact: read-out: ERK2 Binding Kinact.
From the text: as §1

[6] abbreviates: COLO-829, COLO829 human melanoma cell line, B-Raf V600E, read-out: Inhibitory Concentration (IC50) COLO829 (B-Raf V600E).
The mark [7] stands for this setting: HT-29, HT29 human colon cancer cell line, B-Raf V600E, read-out: Inhibitory Concentration (IC50) HT29 (B-Raf V600E).
[8] abbreviates: SK-OV-3, SKOV3 cell line, wild-type B-Raf, read-out: Inhibitory Concentration (IC50) SKOV3 (wild-type B-Raf).

Where two headings read alike, the source gives them in different places. A value given as a limit tells only on which side of the number the result lay.

Chain of ERK2 (P28482 whole entry, species assumed): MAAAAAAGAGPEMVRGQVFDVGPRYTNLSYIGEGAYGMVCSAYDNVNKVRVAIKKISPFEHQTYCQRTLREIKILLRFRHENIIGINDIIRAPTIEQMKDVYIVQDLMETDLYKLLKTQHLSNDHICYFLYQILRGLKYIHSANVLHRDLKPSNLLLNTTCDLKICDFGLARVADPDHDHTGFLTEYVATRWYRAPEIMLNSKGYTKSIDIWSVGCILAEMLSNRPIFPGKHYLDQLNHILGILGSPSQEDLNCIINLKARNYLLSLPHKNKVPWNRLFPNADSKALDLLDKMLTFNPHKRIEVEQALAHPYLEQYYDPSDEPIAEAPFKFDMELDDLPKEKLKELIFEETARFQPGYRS

Turning to `C[C@@H]1/C=C\C(=O)[C@@H](O)[C@@H](O)COCc2cc(O)cc(O)c2C(=O)O[C@H]1C` [IV], the values for the IC50 in experiment [1] (setting [6]), in experiment [2] (setting [7]) and in experiment [3] (setting [8]) were 0.31 µM, 1.42 µM and > 100 µM, respectively.
`COc1cc(O)c2c(c1)[C@H]1O[C@@H]1C[C@H](O)[C@H](O)C(=O)/C=C\C[C@H](C)OC2=O` [Hypothemycin, hypothemycin]: the IC50 was found to be 0.046 µM in experiment [1] (Homo sapiens, COLO-829, read-out: Inhibitory Concentration (IC50) COLO829 (B-Raf V600E)); 0.26 µM in experiment [2] (Homo sapiens, HT-29, read-out: Inhibitory Concentration (IC50) HT29 (B-Raf V600E)); 4 µM in experiment [3] (SK-OV-3, read-out: Inhibitory Concentration (IC50) SKOV3 (wild-type B-Raf)). The “number of kinases without active site cysteine inhibited” value in experiment [4] (of 105 kinases not having the active site cysteine) is 2. Besides, in experiment [4] (of the 19 kinases having the active site cysteine), the “number of active site cysteine kinases inhibited” value is listed as 18. In addition, in experiment [4] (of the whole panel of 124 kinases), the “number of kinases inhibited” value is reported as 20. In experiment [5], this molecule yielded a Ki of 2.7 ± 0.8 µM. The kinact in experiment [5] was 0.005 ± 2e-06 s⁻¹.
For the molecule `C[C@H]1C/C=C\C(=O)[C@@H](O)[C@@H](O)COCc2cc(O)cc(O)c2C(=O)O1` [Compound III], the figures for the IC50 in experiment [1] (setting [6]), in experiment [2] (setting [7]) and in experiment [3] (setting [8]) were 0.36 µM, 0.86 µM and 74 µM, respectively. In experiment [5] (read-out: ERK2 Binding Ki), the Ki was 3.1 ± 0.4 µM. In addition, the kinact in experiment [5] worked out at 9.1e-05 s⁻¹.
